Read-outs that look alike come from different tables or passages of the source.
Assay: Single oral dose human plasma pharmacokinetics of D, DA and DOH after Cogni.Q
Format: in vivo
Settings: for AUC(0-t) / Cmax / half-life / Tmax: human, plasma
Description: Ten healthy male and 10 female subjects were recruited by public announcement in Amarillo, TX, from January 2013 to April 2013 (see Fig. 1 CONSORT diagram). The sample size for each gender was chosen without power calculation due to the lack of prior knowledge of PK parameter variance in humans. After receiving informed consent verbally and in writing, the health status of each candidate was confirmed by health questionnaire, plasma biochemistry (hepatic and renal functions), complete blood cell count (CBC), and a physical examination by a participating academic physician. Subjects with diabetes, or pregnant, perinatal and breastfeeding women were excluded. For the 48 hours preceding study visit until the final blood draw, all subjects were instructed to avoid taking any prescription or nonprescription drugs, vitamins, and herbal/dietary supplements. Each subject was compensated for participating in the study per TTUHSC IRB approved rate.
Eligible subjects arrived at our clinical facility at 0700 (7:00 am) on the test day after a fast beginning at 2200 (10:00 pm) the previous night. After a brief review of vital signs, the nurse placed an intravenous (IV) line with saline drip in one arm of each subject. A baseline pre-dose (hour 0) blood sample was drawn through the IV line; after that subjects swallowed four Cogni.Q vegicaps with 240 mL of water at hour 0 under direct supervision. Subjects stayed at the clinical facility in their room for the next 12 hours, returning at 24 and 48 hours. Blood was drawn at baseline (hour 0) and at 0.5, 1, 2, 3, 4, 6, 8, 12, 24 and 48 hours after dosing into Vacutainer Blood Collection Tube (Becton-Dickinson, Franklin Lakes, NJ. Product Number: 367874, Sodium heparin was used as anti-coagulant). Water was allowed as desired except for within the first hour after Cogni.Q consumption. All subjects received standardized meals at post-dose hours 4.5 and 9.5 but no food was allowed for at least the first 4 hours post-dose.
Plasma was prepared by centrifuging the heparinized blood at 1000 g for 15 minutes at room temperature. Urine samples (40mL) were collected within time spans of 0–4, 4–8, 8–12 and 12–24 hours (total volume of urine was recorded). All plasma and urine samples were put on dry ice immediately and then stored at -80°C freezer until analysis.
Plasma samples were extracted with a validated solid supported liquid extraction (SLE) method facilitated with a positive pressure manifold (Biotage, Charlotte, NC). Briefly, 100 μL of plasma sample was spiked with 5 μL of 10 ng/μL prednisolone (IS), diluted with 200 μL of LC-MS grade water, mixed and loaded onto ISOLUTE SLE+ 400 μL Array Well cartridges (Biotage, Charlotte, NC). A pulse of minimum positive pressure was applied to facilitate the samples absorption into the cartridges. After the samples were allowed to absorb for 5 min, the compounds were eluted with 2×500 μL tert-butyl methyl ether. The eluent was dried in a Speedvac and the resulting residue was reconstituted in 50 μL of methanol for UHPLC-MS/MS analysis.
Eight-point calibration curves were constructed for D, DA and DOH, at concentrations of 0.1, 0.5, 1, 5, 10, 20, 50 and 100 μg/L for D and DA, and at concentrations of 1, 5, 10, 50, 100, 200, 500 and 1000 μg/L for DOH, respectively. The linear range was 0.1–100 μg/L (0.3–300 nmol/L), 0.1–100 μg/L (0.3–300 nmol/L) and 1–1000 μg/L (4–4000 nmol/L) for D, DA and DOH, respectively. The inter- and intra-assay CV were lower than 6.5% and the accuracy was between 90–105%. Calibration curve was run for each batch of samples analyzed. The mean calibration curve correlation coefficient (r) for D, DA and DOH was 0.999, 0.999 and 0.998, respectively (data from 7–10 calibration curves). In addition, 70% of the plasma samples were extracted and analyzed twice, the data from two replicate analyses were nearly identical and combined for final data analyses and presentation. […]

CC(C)=CC(=O)O[C@H]1Cc2cc3ccc(=O)oc3cc2OC1(C)C [D, decursin]
AUC(0-t) (oral, 4 Cogni.Q vegicaps, subject S10 (185 lb), read-out: AUC0-48h): 46.6 nmol·h/L
Cmax (oral, 4 Cogni.Q vegicaps, subject S10 (185 lb), read-out: Cmax): 5.7 nM
half-life (oral, 4 Cogni.Q vegicaps, subject S10 (185 lb), read-out: Terminal t1/2, h (converted)): 13.4 h
Tmax (oral, 4 Cogni.Q vegicaps, subject S10 (185 lb), read-out: Tmax): 0.5 h
AUC(0-t) (oral, 4 Cogni.Q vegicaps, subject S11 (178 lb), read-out: AUC0-48h): 14.7 nmol·h/L
Cmax (oral, 4 Cogni.Q vegicaps, subject S11 (178 lb), read-out: Cmax): 2.5 nM
half-life (oral, 4 Cogni.Q vegicaps, subject S11 (178 lb), read-out: Terminal t1/2, h (converted)): 20.2 h
Tmax (oral, 4 Cogni.Q vegicaps, subject S11 (178 lb), read-out: Tmax): 1 h
AUC(0-t) (oral, 4 Cogni.Q vegicaps, subject S12 (169 lb), read-out: AUC0-48h): 24.8 nmol·h/L
Cmax (oral, 4 Cogni.Q vegicaps, subject S12 (169 lb), read-out: Cmax): 1.3 nM
half-life (oral, 4 Cogni.Q vegicaps, subject S12 (169 lb), read-out: Terminal t1/2, h (converted)): 15.7 h
Tmax (oral, 4 Cogni.Q vegicaps, subject S12 (169 lb), read-out: Tmax): 2 h
AUC(0-t) (oral, 4 Cogni.Q vegicaps, subject S13 (192 lb), read-out: AUC0-48h): 13.5 nmol·h/L
Cmax (oral, 4 Cogni.Q vegicaps, subject S13 (192 lb), read-out: Cmax): 1.3 nM
half-life (oral, 4 Cogni.Q vegicaps, subject S13 (192 lb), read-out: Terminal t1/2, h (converted)): 25.8 h
Tmax (oral, 4 Cogni.Q vegicaps, subject S13 (192 lb), read-out: Tmax): 0.5 h
AUC(0-t) (oral, 4 Cogni.Q vegicaps, subject S14 (200 lb), read-out: AUC0-48h): 21.5 nmol·h/L
Cmax (oral, 4 Cogni.Q vegicaps, subject S14 (200 lb), read-out: Cmax): 8.6 nM
half-life (oral, 4 Cogni.Q vegicaps, subject S14 (200 lb), read-out: Terminal t1/2, h (converted)): 4.5 h
Tmax (oral, 4 Cogni.Q vegicaps, subject S14 (200 lb), read-out: Tmax): 1 h
AUC(0-t) (oral, 4 Cogni.Q vegicaps, subject S15 (177 lb), read-out: AUC0-48h): 23.8 nmol·h/L
Cmax (oral, 4 Cogni.Q vegicaps, subject S15 (177 lb), read-out: Cmax): 16.8 nM
half-life (oral, 4 Cogni.Q vegicaps, subject S15 (177 lb), read-out: Terminal t1/2, h (converted)): 26.5 h
Tmax (oral, 4 Cogni.Q vegicaps, subject S15 (177 lb), read-out: Tmax): 1 h
Tmax (oral, 4 Cogni.Q vegicaps, subject S16 (175 lb), read-out: Tmax): 3 h
AUC(0-t) (oral, 4 Cogni.Q vegicaps, subject S17 (147 lb), read-out: AUC0-48h): 53.9 nmol·h/L
Cmax (oral, 4 Cogni.Q vegicaps, subject S17 (147 lb), read-out: Cmax): 9.8 nM
half-life (oral, 4 Cogni.Q vegicaps, subject S17 (147 lb), read-out: Terminal t1/2, h (converted)): 22.7 h
Tmax (oral, 4 Cogni.Q vegicaps, subject S17 (147 lb), read-out: Tmax): 2 h
half-life (oral, 4 Cogni.Q vegicaps, subject S18 (180 lb), outlier, excluded from means, read-out: Terminal t1/2, h (converted)): 138 h
AUC(0-t) (oral, 4 Cogni.Q vegicaps, subject S18 (180 lb), read-out: AUC0-48h): 25.8 nmol·h/L
Cmax (oral, 4 Cogni.Q vegicaps, subject S18 (180 lb), read-out: Cmax): 1.7 nM
Tmax (oral, 4 Cogni.Q vegicaps, subject S18 (180 lb), read-out: Tmax): 4 h
AUC(0-t) (oral, 4 Cogni.Q vegicaps, subject S19 (130 lb), read-out: AUC0-48h): 35.7 nmol·h/L
Cmax (oral, 4 Cogni.Q vegicaps, subject S19 (130 lb), read-out: Cmax): 1.7 nM
half-life (oral, 4 Cogni.Q vegicaps, subject S19 (130 lb), read-out: Terminal t1/2, h (converted)): 8.5 h
Tmax (oral, 4 Cogni.Q vegicaps, subject S19 (130 lb), read-out: Tmax): 3 h
half-life (oral, subject S16 (175 lb), outlier, excluded from means, read-out: Terminal t1/2, h (converted)): 9.4 h
AUC(0-t) (oral, subject S16 (175 lb), read-out: AUC0-48h): 22.2 nmol·h/L
Cmax (oral, subject S16 (175 lb), read-out: Cmax): 2.8 nM
AUC(0-t) (oral, subject S20 (200 lb), read-out: AUC0-48h): 19.1 nmol·h/L
Cmax (oral, subject S20 (200 lb), read-out: Cmax): 1.3 nM
half-life (oral, subject S20 (200 lb), read-out: Terminal t1/2, h (converted)): 18.4 h
Tmax (oral, subject S20 (200 lb), read-out: Tmax): 2 h
conversion of D/DA to DOH (humans, from plasma AUC0–48h values): > 98%
AUC(0-t) (male, oral, 4 Cogni.Q vegicaps, Men n=10 (S1 Table), read-out: AUC0-48h, Mean): 28.5 nmol·h/L
Cmax (male, oral, 4 Cogni.Q vegicaps, Men n=10 (S1 Table), read-out: Cmax, nM, Mean): 5.22 nM
Tmax (male, oral, 4 Cogni.Q vegicaps, Men n=10 (S1 Table), read-out: Tmax, h, Mean): 1.7 h
half-life (male, oral, Men, outliers excluded (S1 Table), read-out: Terminal t1/2, h, Mean (converted)): 17.7 h
AUC(0-t) (male, po, Men N = 10, single oral dose Cogni.Q, read-out: AUC0–48h, h.nmol/L Mean (SD)): 28.5 nmol·h/L
Cmax (male, po, Men N = 10, single oral dose Cogni.Q, read-out: Cmax, nmol/L, Mean (SD)): 5.2 nM
Tmax (male, po, Men N = 10, single oral dose Cogni.Q, read-out: Tmax, h, Mean (SD)): 1.7 h
half-life (male, po, Men, outlier subjects excluded, single oral dose Cogni.Q, read-out: T1/2, h, terminal Mean (SD) (converted)): 17.7 h

Source: article PMC4335020, “Single Oral Dose Pharmacokinetics of Decursin and Decursinol Angelate in Healthy Adult Men and Women” (PLoS ONE, 2015)
